Data reported in PubChem BioAssay (NCI).
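Following 48 hours of exposure in 96-well plates, responses at five concentrations were used to interpolate endpoints linearly. GI50: concentration for 50% inhibition of growth. TGI: total growth inhibition.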

Experiments:
Assay in all cases: NCI tumour cell line growth inhibition, 48 h
NCI/ADR-RES ovarian = system: NCI/ADR-RES ovarian
HL-60(TB) leukemia = system: HL-60(TB) leukemia
BT-549 breast = system: BT-549 breast
DU-145 prostate = system: DU-145 prostate
HT29 colon = system: HT29 colon
ACHN renal = system: ACHN renal
SK-MEL-5 melanoma = system: SK-MEL-5 melanoma
SF-539 CNS = system: SF-539 CNS
NCI-H23 lung = system: NCI-H23 lung
PC-3 prostate = system: PC-3 prostate
NCI-H460 lung = system: NCI-H460 lung
KM12 colon = system: KM12 colon
MOLT-4 leukemia = system: MOLT-4 leukemia
HOP-62 NSCLC = system: HOP-62 NSCLC
MALME-3M melanoma = system: MALME-3M melanoma
COLO 205 colon = system: COLO 205 colon
SF-295 CNS = system: SF-295 CNS
MDA-MB-231 breast = system: MDA-MB-231 breast
MDA-N = system: MDA-N
M14 melanoma = system: M14 melanoma
SR leukemia = system: SR leukemia
786-0 renal = system: 786-0 renal
SK-OV-3 ovarian = system: SK-OV-3 ovarian
RPMI-8226 leukemia = system: RPMI-8226 leukemia
LOX IMVI melanoma = system: LOX IMVI melanoma
HS 578T breast = system: HS 578T breast
SK-MEL-28 melanoma = system: SK-MEL-28 melanoma
A549 NSCLC = system: A549 NSCLC
UO-31 renal = system: UO-31 renal
HCT-116 colon = system: HCT-116 colon
HOP-92 NSCLC = system: HOP-92 NSCLC
SF-268 CNS = system: SF-268 CNS
OVCAR-5 ovarian = system: OVCAR-5 ovarian
MDA-MB-435 = system: MDA-MB-435
T-47D breast = system: T-47D breast
MCF7 breast = system: MCF7 breast
HCT-15 colon = system: HCT-15 colon
SNB-75 CNS = system: SNB-75 CNS
SNB-19 CNS = system: SNB-19 CNS
OVCAR-8 ovarian = system: OVCAR-8 ovarian
A498 renal = system: A498 renal
CAKI-1 renal = system: CAKI-1 renal
IGROV1 ovarian = system: IGROV1 ovarian
TK-10 renal = system: TK-10 renal
NCI-H226 lung = system: NCI-H226 lung
EKVX NSCLC = system: EKVX NSCLC
UACC-257 melanoma = system: UACC-257 melanoma
OVCAR-3 ovarian = system: OVCAR-3 ovarian
CCRF-CEM leukemia = system: CCRF-CEM leukemia
SW-620 colon = system: SW-620 colon
U251 CNS = system: U251 CNS
SN12C renal = system: SN12C renal
UACC-62 melanoma = system: UACC-62 melanoma
K-562 leukemia = system: K-562 leukemia
SK-MEL-2 melanoma = system: SK-MEL-2 melanoma
HCC-2998 colon = system: HCC-2998 colon
NCI-H522 lung = system: NCI-H522 lung
OVCAR-4 ovarian = system: OVCAR-4 ovarian
RXF 393 renal = system: RXF 393 renal

COc1cc(-c2c3c(cc4c2OCO4)[C@@H](Nc2ccc4c(c2)Cc2cc(N[C@@H]5c6cc7c(cc6C(c6cc(OC)c(O)c(OC)c6)[C@H]6C(=O)OC[C@H]56)OCO7)ccc2-4)[C@H]2COC(=O)[C@@H]2C3)cc(OC)c1O (some centres undefined)
TGI (NCI/ADR-RES ovarian): 42.2 µM
TGI (HL-60(TB) leukemia): > 100 µM
TGI (BT-549 breast): 94.5 µM
TGI (DU-145 prostate): > 100 µM
TGI (HT29 colon): 47.2 µM
TGI (ACHN renal): > 100 µM
TGI (SK-MEL-5 melanoma): 46.2 µM
TGI (SF-539 CNS): 19 µM
TGI (NCI-H23 lung): > 100 µM
TGI (PC-3 prostate): 47 µM
TGI (NCI-H460 lung): > 100 µM
TGI (KM12 colon): > 100 µM
TGI (MOLT-4 leukemia): > 100 µM
TGI (HOP-62 NSCLC): 57.5 µM
TGI (MALME-3M melanoma): 60.4 µM
TGI (COLO 205 colon): 28.7 µM
TGI (SF-295 CNS): 42.3 µM
TGI (MDA-MB-231 breast): > 100 µM
TGI (MDA-N): 34.3 µM
TGI (M14 melanoma): 50.3 µM
TGI (SR leukemia): 56.5 µM
TGI (786-0 renal): 63.7 µM
TGI (SK-OV-3 ovarian): 41.1 µM
TGI (RPMI-8226 leukemia): > 100 µM
TGI (LOX IMVI melanoma): > 100 µM
TGI (HS 578T breast): > 100 µM
TGI (SK-MEL-28 melanoma): 70 µM
TGI (A549 NSCLC): > 100 µM
TGI (UO-31 renal): > 100 µM
TGI (HCT-116 colon): 57 µM
TGI (HOP-92 NSCLC): 97.3 µM
TGI (SF-268 CNS): > 100 µM
TGI (OVCAR-5 ovarian): 88.3 µM
TGI (MDA-MB-435): 33.1 µM
TGI (T-47D breast): > 100 µM
TGI (MCF7 breast): > 100 µM
TGI (HCT-15 colon): > 100 µM
TGI (SNB-75 CNS): > 100 µM
TGI (SNB-19 CNS): > 100 µM
TGI (OVCAR-8 ovarian): > 100 µM
TGI (A498 renal): 94.2 µM
TGI (CAKI-1 renal): 88.9 µM
TGI (IGROV1 ovarian): 21.3 µM
TGI (TK-10 renal): > 100 µM
TGI (NCI-H226 lung): > 100 µM
TGI (EKVX NSCLC): > 100 µM
TGI (UACC-257 melanoma): > 100 µM
TGI (OVCAR-3 ovarian): > 100 µM
TGI (CCRF-CEM leukemia): > 100 µM
TGI (SW-620 colon): > 100 µM
TGI (U251 CNS): 89 µM
TGI (SN12C renal): > 100 µM

Cc1ccc2c(c1)C(=O)/C(=C\c1ccc(Cl)cc1)CCS2(=O)=O
TGI (NCI/ADR-RES ovarian): 5.52 µM
TGI (HL-60(TB) leukemia): 5.26 µM
TGI (BT-549 breast): 12.7 µM
TGI (DU-145 prostate): 8.15 µM
TGI (HT29 colon): 6.54 µM
TGI (ACHN renal): 3.83 µM
TGI (UACC-62 melanoma): 10.2 µM
TGI (SK-MEL-5 melanoma): 7.8 µM
TGI (SF-539 CNS): 4.52 µM
TGI (NCI-H23 lung): 10.2 µM
TGI (PC-3 prostate): 39.1 µM
TGI (NCI-H460 lung): 5.02 µM
TGI (KM12 colon): 7.71 µM
TGI (MOLT-4 leukemia): 9.79 µM
TGI (HOP-62 NSCLC): > 47.2 µM
TGI (MALME-3M melanoma): 6.42 µM
TGI (COLO 205 colon): 15.6 µM
TGI (SF-295 CNS): 17.9 µM
TGI (MDA-MB-231 breast): 9.41 µM
TGI (MDA-N): > 36.5 µM
TGI (K-562 leukemia): 3.32 µM
TGI (M14 melanoma): > 34.4 µM
TGI (SR leukemia): 5.55 µM
TGI (786-0 renal): 3.49 µM
TGI (SK-OV-3 ovarian): 22.4 µM
TGI (RPMI-8226 leukemia): 4.81 µM
TGI (SK-MEL-2 melanoma): 61 µM
TGI (LOX IMVI melanoma): 6.43 µM
TGI (HS 578T breast): > 31.5 µM
TGI (SK-MEL-28 melanoma): 13.5 µM
TGI (A549 NSCLC): > 58.8 µM
TGI (UO-31 renal): 9.02 µM
TGI (HCT-116 colon): 3.51 µM
TGI (HOP-92 NSCLC): 18.3 µM
TGI (SF-268 CNS): 16.1 µM
TGI (HCC-2998 colon): 5.43 µM
TGI (OVCAR-5 ovarian): > 42.5 µM
TGI (MDA-MB-435): 23.3 µM
TGI (T-47D breast): 9.4 µM
TGI (MCF7 breast): 14 µM
TGI (HCT-15 colon): 5.01 µM
TGI (SNB-75 CNS): 18.4 µM
TGI (SNB-19 CNS): 6.82 µM
TGI (OVCAR-8 ovarian): 5.39 µM
TGI (A498 renal): 26.4 µM
TGI (CAKI-1 renal): 7.82 µM
TGI (IGROV1 ovarian): 7.56 µM
TGI (TK-10 renal): 5.11 µM
TGI (NCI-H226 lung): 14.2 µM
TGI (NCI-H522 lung): 3.28 µM
TGI (EKVX NSCLC): 25.3 µM
TGI (UACC-257 melanoma): 7.23 µM
TGI (OVCAR-3 ovarian): 19.5 µM
TGI (CCRF-CEM leukemia): > 20.8 µM
TGI (SW-620 colon): 12.1 µM
TGI (U251 CNS): 9.09 µM
TGI (SN12C renal): 8.37 µM
TGI (OVCAR-4 ovarian): 6.93 µM

COc1cc2c3c(n(C)c(=O)c2cc1OC)-c1cc2c(cc1/C3=C/CCCCBr)OCO2
TGI (NCI/ADR-RES ovarian): > 100 µM
TGI (HL-60(TB) leukemia): > 100 µM
TGI (BT-549 breast): > 100 µM
GI50 (DU-145 prostate): 4.46 µM
TGI (DU-145 prostate): > 100 µM
TGI (HT29 colon): > 100 µM
TGI (ACHN renal): > 100 µM
GI50 (UACC-62 melanoma): > 100 µM
TGI (UACC-62 melanoma): > 100 µM
TGI (SK-MEL-5 melanoma): > 100 µM
GI50 (SF-539 CNS): 7.07 µM
TGI (SF-539 CNS): > 100 µM
TGI (NCI-H23 lung): > 100 µM
TGI (PC-3 prostate): > 100 µM
TGI (NCI-H460 lung): > 100 µM
TGI (KM12 colon): > 100 µM
TGI (MOLT-4 leukemia): > 100 µM
GI50 (HOP-62 NSCLC): 26.6 µM
TGI (HOP-62 NSCLC): > 100 µM
TGI (MALME-3M melanoma): > 100 µM
TGI (COLO 205 colon): > 100 µM
TGI (SF-295 CNS): > 100 µM
TGI (MDA-MB-231 breast): > 100 µM
TGI (MDA-N): > 100 µM
TGI (K-562 leukemia): > 100 µM
TGI (M14 melanoma): > 100 µM
TGI (SR leukemia): 15.6 µM
TGI (786-0 renal): > 100 µM
TGI (SK-OV-3 ovarian): > 100 µM
TGI (RPMI-8226 leukemia): 64.5 µM
TGI (SK-MEL-2 melanoma): > 100 µM
TGI (LOX IMVI melanoma): > 100 µM
TGI (HS 578T breast): > 100 µM
TGI (SK-MEL-28 melanoma): > 100 µM
TGI (A549 NSCLC): > 100 µM
TGI (UO-31 renal): > 100 µM
GI50 (HCT-116 colon): 9.47 µM
TGI (HCT-116 colon): > 100 µM
TGI (HOP-92 NSCLC): > 100 µM
TGI (SF-268 CNS): > 100 µM
TGI (OVCAR-5 ovarian): > 100 µM
GI50 (MDA-MB-435): > 100 µM
TGI (MDA-MB-435): > 100 µM
TGI (T-47D breast): > 100 µM
TGI (MCF7 breast): > 100 µM
TGI (HCT-15 colon): > 100 µM
TGI (RXF 393 renal): > 100 µM
TGI (SNB-75 CNS): 96.1 µM
TGI (SNB-19 CNS): > 100 µM
TGI (OVCAR-8 ovarian): > 100 µM
TGI (A498 renal): 87.4 µM
TGI (CAKI-1 renal): > 100 µM
TGI (IGROV1 ovarian): > 100 µM
TGI (TK-10 renal): > 100 µM
TGI (NCI-H522 lung): > 100 µM
TGI (EKVX NSCLC): > 100 µM
TGI (UACC-257 melanoma): > 100 µM
GI50 (OVCAR-3 ovarian): > 100 µM
TGI (OVCAR-3 ovarian): > 100 µM
TGI (CCRF-CEM leukemia): 7.44 µM
TGI (SW-620 colon): > 100 µM
TGI (U251 CNS): > 100 µM
GI50 (SN12C renal): > 100 µM
TGI (SN12C renal): > 100 µM
